Values joined by “and” are separate entries in the source; they are usually repeats but may differ in a detail not shown here. Identical values can stand only once.
Tested on: picryl chloride-induced mouse contact dermatitis model
Test: Suppression action on mouse contact dermatitis model by application on the auricle (auricle thickness)
Format: in vivo, mouse (male BALB/cA Jcl)
Description: From the supernatant of a culture broth obtained by cultivating the strain IJH-SONE68 in modified-SDM medium, exopolysaccharides produced by the strain were purified by the method disclosed in Example 2 to be supplied to experiments (1 mg/mL). The same concentration was used for a dipotassium glycyrrhizinate aqueous solution used as a control of an existing anti-inflammatory drug.
The mice used were male BALB/cA Jcl mice (7-week old at the time of arrival, CLEA Japan, Inc.). Five mice were housed in a breeding cage and bred in an animal breeding room in which environment was adjusted to temperature of 20 to 26° C., humidity of 40 to 60%, and lighting time of 12 hours (8:00 to 20:00). The mice were allowed to freely ingest solid feed MF (Oriental Yeast Co., Ltd.). In addition, with regard to a drinking water, the mice were allowed to freely ingest a purified water.
After carried in the cage, the mice were acclimated for 7 days. […]
On Day 6, the thickness of right auricle of the mice was measured in advance with a caliper, and then an allergic reaction was induced by applying 20 μL of a 1 w/v % picryl chloride solution on the front and back of the right auricle. […] Eighteen hours later (Day 7), the thickness of the auricle was measured, and the difference before and after the induction (A auricle thickness [mm]) was compared among the groups. […] Tukey's test or t test by Welch's method was used for a significant difference test among the groups, and it was determined that there was a significant difference when a risk factor (p value) was less than 0.05.

CC1(C)[C@@H](O[C@H]2O[C@H](C(=O)[O-])[C@@H](O)[C@H](O)[C@H]2O[C@@H]2O[C@H](C(=O)[O-])[C@@H](O)[C@H](O)[C@H]2O)CC[C@]2(C)[C@H]3C(=O)C=C4[C@@H]5C[C@@](C)(C(=O)O)CC[C@]5(C)CC[C@@]4(C)[C@]3(C)CC[C@@H]12.[K+].[K+] [dipotassium glycyrrhizinate]
Increase in auricle thickness due to inflammation vs control group (FIG. 7, Tukey test) (application, p<0.1): tended to be suppressed
Increased amount of auricle thickness, Average (group average, 20 μL of 1 mg/mL sample applied on right auricle 2 h after induction, measured 18 h later, control 0.28): 0.184 mm
Increased amount of auricle thickness, each mouse (individual mice, 20 μL of 1 mg/mL sample applied on right auricle 2 h after induction, measured 18 h later): 0.20 mm and 0.06 mm and 0.22 mm (3×)

From patent US20210169953A1, “COMPOSITION FOR TYPE IV ALLERGY” (SONE FARM CO., LTD, priority 2018, published 2021)
